Patent US20100241219A1, “MEDICAMENT DELIVERY ARTICLE, ACCESSORY & SYSTEM” (ABBEYMOOR MEDICAL , INC, priority 2005, published 2010)

Experiments:
[1] = Dye penetration from polyurethane coating on silicone sheets into calf liver tissue; assay type: in vitro ADME; settings: 1% dye in TPU matrix on silicone rubber sheet placed against calf liver for 24 or 48 hours
Method: Mitoxantrone, and ciprofloxacin were likewise tested.
Dyes and drugs were first coated onto silicone rubber sheets as droplets, and dried at 70° C. overnight. To gain a first approximation of the ability of the dyes to penetrate tissue, the sheets were placed against the outer membrane of calf liver, either for 24 or 48 hours. The tissue was placed on top of the sheet and supplied with nothing more that the pressure of the tissue against the sheet.

[2] = Dye penetration from coated stents into excised human prostate tissue; settings: dye bands on stent in excised prostate, 37° C., after 48 hours
Description: As to materials, acidic, basic or lipophilic dyes, with molecular weights in the range of 3-400, were used, including: crystal violet (MW 408); basic Nile blue (MW 300); Nile red lipophilic; oil red O lipophilic; erythrosin (MW 890) acidic; and, methylene blue (MW 319) acidic. Mitoxantrone, and ciprofloxacin were likewise tested. The dyes and agents were mixed in a thermoplastic polyurethane (TPU) matrix comprising of 30/70 weight ratio of Carbothane® 72D, an aliphatic, polycarbonate based TPU, to Tecophil®, a hydrophilic, aliphatic, polyether-based TPU (Noveon, Inc.) in a 50/50 mixture of DMAC and THF. The polymers were prepared, 5% by weight, with dyes or agents added to the mixture as an additional 1% by weight.
Human prostate tissue was obtain postmortem, and within 24 hours thereof, and flash froze. The tissue was thereafter thawed at ambient temperature, and used within 12 hours. The tissue was not fixed.
Six dyes, namely, methylene blue, crystal violet, a combination of Nile blue and Nile red, oil red O, and erythrosin were coated onto two stents in the form of 3 mm bands or rings. One stent was coated with both mitoxantrone, and ciprofloxacin. Thereafter, the stents were placed in a phosphate buffered Ringer's solution with 1% virocide into excised prostates for 24 and 48 hours at 37° C. […]

| SMILES | penetration / staining of liver tissue [1] | staining of prostatic tissue [2] |
| --- | --- | --- |
| CCN(CC)c1ccc2nc3c4ccccc4c(=O)cc-3oc2c1 [Nile red] | only mildly stained the tissue | – |
| CN(C)c1ccc(C(=C2C=CC(=[N+](C)C)C=C2)c2ccc(N(C)C)cc2)cc1 [crystal violet] | penetrated the tissue to the greatest extent | – |
| O.O=C([O-])c1ccccc1-c1c2cc(I)c(=O)c(I)c-2oc2c(I)c([O-])c(I)cc12.[Na+].[Na+] [erythrosin] | – | approximately equivalent |
| Cc1ccc(C)c(N=Nc2cc(C)c(N=Nc3c(O)ccc4ccccc34)cc2C)c1 [oil red O] | only mildly stained the tissue | staining the least |
